In US4472414A, “Spiro[indolo[1,7-ab][1,5]benzodiazepine-2,4'-piperidines]” (Hoechst-Roussel Pharmaceuticals Incorporated, priority 1983, dated 1984):
Structures can show the parent of a compound that is named as a salt.

tested on: 2-phenyl-1,4-benzoquinone-induced writhing; test: 2-phenyl-1,4-benzoquinone-induced writhing test in mice (Phenylquinone Writhing), analgesic activity; type: in vivo; conditions: Mus musculus, sc, read-out: Inhibition of Writing ED50
Description: Compounds of Formula I of the present invention, namely, compounds of Formulas II, III and IV are useful as analgesic agents due to their ability to alleviate pain in mammals. […] Exptl. Biol. Med., 95, 729 (1957)].

SMILES | ED50
CC1=Nc2ccccc2N2CC3(CCN(C)CC3)c3cccc1c32 [1,2-Dihydro-1',6-dimethyl-spiro[indolo[1,7-ab][1,5]benzodiazepine-2,4'-piperidine]dihydrochloride] | 4.7 mg/kg
CC1c2cccc3c2N(CC32CCN(C)CC2)c2ccccc2N1C(=O)CCN(C)C (stereo not shown) [7-(N,N-dimethyl-3-aminopropionyl)-1',6-dimethyl-1,2,6,7-tetrahydro-spiro[indolo[1,7-ab][1,5]benzodiazepine-2,4'-piperidine]dihydrobromide] | 28.4 mg/kg
CC1Nc2ccccc2N2CC3(CCN(C)CC3)c3cccc1c32 (stereo not shown) [1',6-Dimethyl-1,2,6,7-tetrahydro-spiro[indolo[1,7-ab][1,5]benzodiazepine-2,4'-piperidine]dihydrochloride] | 9.7 mg/kg
CN1CCC2(CC1)CN1c3ccccc3N=Cc3cccc2c31 [1,2-Dihydro-1'-methyl-spiro[indolo[1,7-ab][1,5]benzodiazepine-2,4'-piperidine]dihydrochloride] | 12.1 mg/kg
